Data: patent US8053585B2, “Protecting group for carboxylic acids that can be photolyzed by visible light” (Cornell Research Foundation, Inc., priority 2006, dated 2011)

Tests used:
[1] = test system: GluR6 glutamate receptor; experiment: Laser-pulse photolysis of DECM-caged glutamate on HEK 293 cells; type: cell-based; conditions: 2 mM caged compound, −60 mV, pH 7.4, 22° C.
Experimental: The cells were used for electrophysiological experiments between 24 and 72 h after each passage. Whole-cell currents evoked by glutamate or glycine (100 μM) were recorded using the whole-cell configuration (Hamill et al., “Improved Patch-Clamp Techniques for High-Resolution Current Recording From Cells and Cell-Free Membrane Patches,” Pfluegers Arch 391:85-100 (1981), which is hereby incorporated by reference in its entirety) at room temperature, −60 mV, and pH 7.4. The experiments using DECM-caged glutamate were carried out in the absence or presence of 2 mM DECM-caged glutamate (FIG. 5A) or 1 mM 7-N,N-diethylamino-4-hydroxymethylcoumarin (2) (FIG. 5B). Alternatively, the experiments using DECM-caged glycine were carried out in the absence or presence of 1 mM DECM-caged-glycine (FIG. 10). The solution in the recording pipet contained 120 mM CsCl, 10 mM EGTA, and 10 mM HEPES, adjusted to pH 7.4. The HEK cell bath solution contained 150 mM NaCl, 1 mM CaCl2, 10 mM HEPES, pH 7.4. The resistance of the recording electrode filled with buffer solution was typically 3-5 MΩ and the series resistance was 5-6 MΩ. […]
The laser light produced by the Exalite (Exiton Inc., Dayton, Ohio) 404 dye (≧400 nm) was coupled into an optical fiber (300 μm internal diameter), which delivered the light to the cell. […] Data were analyzed with Microcal Origin3.5 software (Microcal, Northampton, Mass.).

[2] = biological target: T1, α1-subunit human glycine receptor (Homo sapiens, UniProt P23415); experiment: Stability in aqueous solution by whole-cell current recording, cells used as glycine detector; type: cell-based; conditions: 1 mM solution, 20 hours in the dark, pH 7.4
T1 construct: expressed in transfected cells; host or cells: HEK 293 cells, transiently transfected (Polyfect), co-transfected with GFP plasmid as marker; cDNA from Prof; H. Betz
T1 sequence (P23415 29-457): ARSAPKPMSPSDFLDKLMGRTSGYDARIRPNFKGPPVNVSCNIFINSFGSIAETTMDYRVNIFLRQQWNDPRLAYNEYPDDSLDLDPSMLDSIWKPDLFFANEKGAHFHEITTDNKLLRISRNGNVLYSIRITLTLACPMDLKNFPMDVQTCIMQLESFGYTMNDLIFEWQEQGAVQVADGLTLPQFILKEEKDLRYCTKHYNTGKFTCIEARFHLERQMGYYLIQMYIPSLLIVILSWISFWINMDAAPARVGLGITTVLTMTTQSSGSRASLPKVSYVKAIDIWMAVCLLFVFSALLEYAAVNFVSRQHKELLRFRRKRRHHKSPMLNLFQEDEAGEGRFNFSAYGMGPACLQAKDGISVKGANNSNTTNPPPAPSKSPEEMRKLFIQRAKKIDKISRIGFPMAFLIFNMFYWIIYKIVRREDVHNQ
Description: In whole-cell current recording experiments with DECM-caged glutamate, HEK 293 cells stably transfected with cDNA encoding the GluR6 were used. In whole-cell current recording experiments with DECM-caged glycine, HEK 293 cells were transiently transfected with the cDNA of the α1-subunit of the human glycine receptor by using the Polyfect™ transfection reagent (Qiagen GmbH, D-40724, Hilden, Germany). The cDNA of the α1-subunit was kindly provided by Professor H. Betz (Max-Plank-Institute for brain Research, Frankfurt, Germany). The cells were co-transfected with cDNA encoding the green fluorescent protein (pGreen Lantern plasmid, Life Technologies, Gaitherberg, Md.) to detect transfected cells (Chalfie et al., “Green Fluorescent Protein as a Marker for Gene Expression,” Science 263:802-805 (1994), which is hereby incorporated by reference in its entirety).
The cells were used for electrophysiological experiments between 24 and 72 h after each passage. Whole-cell currents evoked by glutamate or glycine (100 μM) were recorded using the whole-cell configuration (Hamill et al., “Improved Patch-Clamp Techniques for High-Resolution Current Recording From Cells and Cell-Free Membrane Patches,” Pfluegers Arch 391:85-100 (1981), which is hereby incorporated by reference in its entirety) at room temperature, −60 mV, and pH 7.4. […]

SMILES	I∞, current at t=∞ [1] [pA]	kobs, apparent pseudo-first-order rate constant of the current rise [1] [s⁻¹]	free glycine in solution of caged compound [2]
CCN(CC)c1ccc2c(COC(=O)CCC(N)C(=O)O)cc(=O)oc2c1 (stereo not drawn) [DECM-caged glutamate, (7-N,N-Diethylaminocoumarin-4-yl)-methyl-glutamate-trifluoroacetate]	−1590	765 ± 14	
CCN(CC)c1ccc2c(COC(=O)CN)cc(=O)oc2c1 [DECM-caged glycine, (7-N,N-Diethylaminocoumarin-4-yl)-methyl-glycine-trifluoroacetate]			no free glycine was detected
